Experimental data: ChEMBL document CHEMBL3885861, “Open TG-GATES”

Organism: Rattus norvegicus
Experiment: Open TG-GATES - Regimen: Single
Assay type: toxicity, organism-based, Sprague-Dawley
Parameters: regimen Single, gender Male, age 6 weeks
Settings: in vivo, po, 300 mg/kg, route gavage, dose level Middle; for APTT / Bas / Eos / Fbg / Hb / Ht / Lym / MCH / MCHC / MCV / Mono / Neu / PT / Plat / RBC / Ret / WBC: tissue Blood; for KIDNEY_L / KIDNEY_R / KIDNEY_TOTAL: tissue Kidney; for LIVER: tissue Liver; for A/G / ALP / ALT / AST / BUN / CRE / Ca / Cl / DBIL / GLC / IP / K / LDH / Na / PL / RALB / TBIL / TC / TG / TP / gamma-GTP: tissue Plasma

Structure (SMILES): CCCCNC(=O)NS(=O)(=O)c1ccc(C)cc1 [TOLBUTAMIDE]
- TERMINAL_BW (3 h): 202.7 g
- APTT (3 h): 16.1 s
- Bas (3 h): 0%
- Eos (3 h): 1%
- Fbg (3 h): 308.4 mg/dL
- Hb (3 h): 13.7 g/dL
- Ht (3 h): 42.4%
- Lym (3 h): 75.2%
- MCH (3 h): 20.5 pg
- MCHC (3 h): 32.3%
- MCV (3 h): 63.5 fL
- Mono (3 h): 3%
- Neu (3 h): 20.4%
- PT (3 h): 12.9 s
- Plat (3 h): 121.4 x10_4/uL
- RBC (3 h): 667.6 x10_4/ul
- Ret (3 h): 9%
- WBC (3 h): 75.7 x10_2/uL
- KIDNEY_L (3 h): 0.9 g
- KIDNEY_R (3 h): 0.9 g
- KIDNEY_TOTAL (3 h): 1.8 g
- LIVER (3 h): 8.8 g
- A/G (3 h): 0.9
- ALP (3 h): 1501.4 IU/L
- ALT (3 h): 42 IU/L
- AST (3 h): 75 IU/L
- BUN (3 h): 11.2 mg/dL
- CRE (3 h): 0.2 mg/dL
- Ca (3 h): 10.8 mg/dL
- Cl (3 h): 107 meq/L
- DBIL (3 h): 0.008 mg/dL
- GLC (3 h): 148 mg/dL
- IP (3 h): 8.4 mg/dL
- K (3 h): 4.1 meq/L
- LDH (3 h): 59.6 IU/L
- Na (3 h): 141 meq/L
- PL (3 h): 135.6 mg/dL
- RALB (3 h): 2.6 g/dL
- TBIL (3 h): 0.052 mg/dL
- TC (3 h): 76.6 mg/dL
- TG (3 h): 71.8 mg/dL
- TP (3 h): 5.5 g/dL
- gamma-GTP (3 h): 1 IU/L
- TERMINAL_BW (6 h): 203.4 g
- APTT (6 h): 17.5 s
- Bas (6 h): 0.2%
- Eos (6 h): 1%
- Fbg (6 h): 295 mg/dL
- Hb (6 h): 13.9 g/dL
- Ht (6 h): 42.5%
- Lym (6 h): 75.8%
- MCH (6 h): 21.4 pg
- MCHC (6 h): 32.7%
- MCV (6 h): 65.5 fL
- Mono (6 h): 2.6%
- Neu (6 h): 20.4%
- PT (6 h): 13.1 s
- Plat (6 h): 119.3 x10_4/uL
- RBC (6 h): 650 x10_4/ul
- Ret (6 h): 9%
- WBC (6 h): 68.2 x10_2/uL
- KIDNEY_L (6 h): 0.9 g
- KIDNEY_R (6 h): 0.9 g
- KIDNEY_TOTAL (6 h): 1.8 g
- LIVER (6 h): 8.5 g
- A/G (6 h): 0.9
- ALP (6 h): 1415.4 IU/L
- ALT (6 h): 47.2 IU/L
- AST (6 h): 81.8 IU/L
- BUN (6 h): 11.6 mg/dL
- CRE (6 h): 0.2 mg/dL
- Ca (6 h): 11 mg/dL
- Cl (6 h): 106.6 meq/L
- DBIL (6 h): 0.006 mg/dL
- GLC (6 h): 134.8 mg/dL
- IP (6 h): 9.5 mg/dL
- K (6 h): 3.8 meq/L
- LDH (6 h): 54 IU/L
- Na (6 h): 141.4 meq/L
- PL (6 h): 126.6 mg/dL
- RALB (6 h): 2.6 g/dL
- TBIL (6 h): 0.058 mg/dL
- TC (6 h): 66.6 mg/dL
- TG (6 h): 59.2 mg/dL
- TP (6 h): 5.4 g/dL
- gamma-GTP (6 h): 1.2 IU/L
- TERMINAL_BW (9 h): 200 g
- APTT (9 h): 17.4 s
- Bas (9 h): 0%
- Eos (9 h): 1.2%
- Fbg (9 h): 324 mg/dL
- Hb (9 h): 13.7 g/dL
- Ht (9 h): 41.4%
- Lym (9 h): 69%
- MCH (9 h): 20.7 pg
- MCHC (9 h): 32.9%
- MCV (9 h): 62.9 fL
- Mono (9 h): 2.4%
- Neu (9 h): 27%
- PT (9 h): 13.4 s
- Plat (9 h): 129.6 x10_4/uL
- RBC (9 h): 659 x10_4/ul
- Ret (9 h): 8.8%
- WBC (9 h): 81.6 x10_2/uL
- KIDNEY_L (9 h): 0.9 g
- KIDNEY_R (9 h): 0.9 g
- KIDNEY_TOTAL (9 h): 1.8 g
- LIVER (9 h): 7.9 g
- A/G (9 h): 0.9
- ALP (9 h): 1449.6 IU/L
- ALT (9 h): 40.4 IU/L
- AST (9 h): 71.8 IU/L
- BUN (9 h): 9.6 mg/dL
- CRE (9 h): 0.2 mg/dL
- Ca (9 h): 10.8 mg/dL
- Cl (9 h): 106.4 meq/L
- DBIL (9 h): 0.004 mg/dL
- GLC (9 h): 136.6 mg/dL
- IP (9 h): 9.9 mg/dL
- K (9 h): 4 meq/L
- LDH (9 h): 62 IU/L
- Na (9 h): 142 meq/L
- PL (9 h): 127.2 mg/dL
- RALB (9 h): 2.6 g/dL
- TBIL (9 h): 0.064 mg/dL
- TC (9 h): 69.4 mg/dL
- TG (9 h): 41.6 mg/dL
- TP (9 h): 5.4 g/dL
- gamma-GTP (9 h): 1 IU/L
- TERMINAL_BW (24 h): 218.5 g
- APTT (24 h): 16.4 s
- Bas (24 h): 0.2%
- Eos (24 h): 1%
- Fbg (24 h): 314.2 mg/dL
- Hb (24 h): 13.3 g/dL
- Ht (24 h): 40.4%
- Lym (24 h): 76.6%
- MCH (24 h): 20.9 pg
- MCHC (24 h): 33%
- MCV (24 h): 63.5 fL
- Mono (24 h): 3.6%
- Neu (24 h): 18%
- PT (24 h): 12.9 s
- Plat (24 h): 125 x10_4/uL
- RBC (24 h): 636.8 x10_4/ul
- Ret (24 h): 8%
- WBC (24 h): 102.5 x10_2/uL
- KIDNEY_L (24 h): 0.9 g
- KIDNEY_R (24 h): 0.9 g
- KIDNEY_TOTAL (24 h): 1.9 g
- LIVER (24 h): 10.3 g
- A/G (24 h): 0.9
- ALP (24 h): 1549.2 IU/L
- ALT (24 h): 45 IU/L
- AST (24 h): 72.2 IU/L
- BUN (24 h): 14.2 mg/dL
- CRE (24 h): 0.2 mg/dL
- Ca (24 h): 11.1 mg/dL
- Cl (24 h): 105 meq/L
- DBIL (24 h): 0.008 mg/dL
- GLC (24 h): 180.2 mg/dL
- IP (24 h): 8.5 mg/dL
- K (24 h): 4 meq/L
- LDH (24 h): 83 IU/L
- Na (24 h): 141.2 meq/L
- PL (24 h): 150.2 mg/dL
- RALB (24 h): 2.5 g/dL
- TBIL (24 h): 0.062 mg/dL
- TC (24 h): 81.8 mg/dL
- TG (24 h): 85 mg/dL
- TP (24 h): 5.4 g/dL
- gamma-GTP (24 h): 1 IU/L
